Data from US20150099883A1, “ARYLOXYUREA COMPOUND AND PEST CONTROL AGENT” (NIPPON SODA CO., LTD., priority 2012, published 2015).

Experiments:
[1] = test system: adult female Tetranychus kanzawai from Okayama Prefecture; assay: Efficacy test against Tetranychus kanzawai (spray on kidney bean plant); assay type: in vivo; details: 500 ppm emulsion sprayed
Method: Ten adult female Tetranychus kanzawai acarus from Okayama Prefecture were inoculated onto the first leaves of a kidney bean plant planted in a No. 3 pot 7 to 10 days after germination. Next, an emulsion was prepared having the formula indicated in the aforementioned Preparation example 2. This emulsion was diluted with water to a compound concentration of 500 ppm or 125 ppm after which the diluted liquids were sprayed onto the kidney bean plant. The kidney bean plant was then placed in a temperature-controlled room at a temperature of 25° C. and humidity of 65%. The life and death of the adult insects were investigated 3 days after the spraying. In addition, the development from eggs laid to adult was investigated 14 days after the spraying.
The aforementioned test was carried out on the emulsion containing the Compound No. 2-1 at 500 ppm. As a result, the insect mortality rates after 3 days and 14 days for the compound were 90% or higher.

Row | melting point [°C] | Structure (SMILES) | insect mortality rate after 3 days ([1]; 3 days after spraying) [%] | insect mortality rate after 14 days ([1]; 14 days after spraying) [%]
1 |  | CCN(Oc1ccc2ncsc2c1)C(=O)N=S(C)(=O)c1ccccc1 (stereo not drawn) [Compound No. 2-1] | ≥ 90 | ≥ 90
2 | 164 to 166 | CC(C)(NC(=O)NOc1ccc2ncsc2c1)c1ccccn1 |  | 
